The record followed here is ChEMBL document CHEMBL6071165, “Design, synthesis and biological evaluation of plant-derived miliusol derivatives achieve TNBC profound regression in vivo” (Eur J Med Chem, 2024).

Calls of active or inactive are those of the source. The rule behind the calls is not given here.

Data set [1] relates to BT-549. Nature of the data set: Induction of apoptosis in human BT-549 cells assessed as viable cells at 1 uM incubated for 24 hrs by Annexin V-PI staining based flow cytometric analysis (reference value: 93.0%). Type of data set: functional. Conditions: read-out: Activity. For orientation: Flow cytometry measures light scatter and fluorescence of single cells or particles in a stream.

For data set [2], the system named is BT-549. Nature of the data set: Antitumor activity against human BT-549 cells xenografted in female BALB/c mouse model assessed as reduction of proliferation rate of tumor at 5 to 20 mg/kg administered subcutaneously and measured every day. It counts as functional, organism-based. Conditions: dose 5-20 mg/kg, route sc. On the technique in general: Xenograft models place foreign cells or tissue in a host animal.

In data set [3] the test system is MDA-MB-231. The data set can be described thus: Downregulation of LDHA expression in human MDA-MB-231 cells at 1 uM incubated for 24 hrs by DAPI staining based immunofluorescence analysis. Type of data set: functional, cell-based.
Data set [4] relates to MDA-MB-231. Nature of the data set: Inhibition of cell migration in human MDA-MB-231 cells assessed as decrease in MMP-2 level incubated for 24 hrs by Western blot analysis. It counts as functional, cell-based. Conditions: dose 0.5-2 µM. A general note: In western blotting, separated proteins are transferred to a membrane and probed.
Data set [5] concerns BT-549. The data set can be described thus: Antiproliferative activity against human BT-549 cells xenografted in female BALB/c mouse model assessed as fold change in upregulation of BAX protein level at 20 mg/kg administered subcutaneously incubated for 24 hrs by Western blot analysis (reference value: 1.00%). Conditions: route sc. It counts as functional.
The subject of data set [6] is BT-549. The data set can be described thus: Inhibition of tumor sphere formation in human BT-549 cells at 1 uM incubated for 24 hrs by microscopic analysis. It counts as functional, cell-based.
Data set [7] has as its system MDA-MB-231. Nature of the data set: Antimetastatic activity against human MDA-MB-231-Luc cells xenografted in female BALB/C mouse assessed as reduction in metastasis speed at 20 mg/kg administered subcutaneously and measured for 16 days. It counts as functional, organism-based. The note with it: route sc, time 16.0 day.
In data set [8] the target is Eukaryotic translation initiation factor 3 subunit D (Homo sapiens) (UniProt O15371). The data set can be described thus: Induction of thermal stabilization of EIF3D in human BT-549 cells at 1 uM by CETSA analysis. Type of data set: cell-based.
The nature of data set [9]: Antiproliferative activity against human MCF-10A cells assessed as inhibition of cell proliferation incubated for 24 hrs by MTT assay. Type of data set: toxicity, cell-based.
In data set [10] the test system is MDA-MB-231. Nature of the data set: Inhibition of cell migration in human MDA-MB-231 cells assessed as increase in E-cadherin level incubated for 24 hrs by Western blot analysis. It counts as functional, cell-based. Conditions: dose 0.5-2 µM.
A short description of data set [11]: Toxicity in female BALB/c mouse xenografted with human MDA-MB-231 cells assessed as effect on pathological changes in lung at 5 to 20 mg/kg, sc by H and E staining based analysis. It counts as organism-based. Conditions: in vivo, dose 5-20 mg/kg.
In data set [12] the test system is MDA-MB-231. The data set can be described thus: Induction of apoptosis in human MDA-MB-231 cells assessed as early apoptotic cells at 0.5 uM incubated for 24 hrs by Annexin V-PI staining based flow cytometric analysis (reference value: 0.42%). It counts as functional.
Data set [13] can be described thus: Toxicity in female BALB/c mouse xenografted with human MDA-MB-231 cells assessed as effect on pathological changes in liver at 5 to 20 mg/kg, sc by H and E staining based analysis. Type of data set: organism-based. Conditions: in vivo, dose 5-20 mg/kg.
Data set [14] relates to MDA-MB-231. The data set can be described thus: Inhibition of glycolysis in human MDA-MB-231 cells assessed as decrease in PKM2 protein level at 0.5 to 2 uM incubated for 24 hrs by Western blot analysis. Type of data set: functional, cell-based. Conditions: dose 0.5-2 µM.
Data set [15] can be described thus: Selectivity ratio of IC50 for antiproliferative activity against human MCF-10A cells assessed as inhibition of cell proliferation incubated for 48 hrs by MTT assay to IC50 for antiproliferative activity against human BT-549 cells assessed as inhibition of cell proliferation incubated for 48 hrs by MTT assay. It counts as toxicity, cell-based. Conditions: MCF-10A cells versus BT-549 cells, read-out: Ratio IC50.

Data set [16] deals with BT-549. Nature of the data set: Inhibition of glycolysis in human BT-549 cells assessed as decrease in PKM2 protein level at 0.5 to 2 uM incubated for 24 hrs by Western blot analysis. It counts as functional, cell-based. Conditions: dose 0.5-2 µM.
Data set [17] in a line: Toxicity in female BALB/c mouse xenografted with human MDA-MB-231 cells assessed as effect on pathological changes in kidney at 5 to 20 mg/kg, sc by H and E staining based analysis. It counts as organism-based. Conditions: in vivo, dose 5-20 mg/kg.
The subject of data set [18] is BT-549. Nature of the data set: Inhibition of cell migration in human BT-549 cells assessed as reduction in wound healing ability at 0 to 2 uM incubated for 48 hrs by Wound healing assay. Type of data set: functional, cell-based. The note with it: dose 0-2 µM.
Data set [19] has as its system MDA-MB-231. The data set can be described thus: Induction of apoptosis in human MDA-MB-231 cells assessed as upregulation of cleavage of caspase-8 expression at 0.5 to 2 uM incubated for 24 hrs by Western blot analysis. Conditions: dose 0.5-2 µM. It counts as functional, cell-based.
Data set [20] relates to Mitochondrial membrane. The data set can be described thus: Disruption of mitochondrial potential loss in human MDA-MB-231 cells assessed as decrease in JC-1 aggregates at 1 uM incubated for 24 hrs by JC-1 staining based flow cytometric analysis (Rvb =98.1%). It counts as cell membranes. Set-up: scale not given: the % may be the effect or the level left.
In data set [21] the test system is BT-549. The data set can be described thus: Induction of ER stress in human BT-549 cells assessed as upregulation of BIP protein level at 1 uM incubated for 24 hrs by DAPI staining based immunofluorescence analysis. Type of data set: functional, cell-based.
Data set [22] is described as follows: Toxicity in female BALB/c mouse assessed as change in brain administered subcutaneously measured upto 16 days. Conditions: in vivo, sc, 384 h, time < 16 day. Type of data set: tissue-based.

Chain of Eukaryotic translation initiation factor 3 subunit D (Homo sapiens) (O15371 whole entry): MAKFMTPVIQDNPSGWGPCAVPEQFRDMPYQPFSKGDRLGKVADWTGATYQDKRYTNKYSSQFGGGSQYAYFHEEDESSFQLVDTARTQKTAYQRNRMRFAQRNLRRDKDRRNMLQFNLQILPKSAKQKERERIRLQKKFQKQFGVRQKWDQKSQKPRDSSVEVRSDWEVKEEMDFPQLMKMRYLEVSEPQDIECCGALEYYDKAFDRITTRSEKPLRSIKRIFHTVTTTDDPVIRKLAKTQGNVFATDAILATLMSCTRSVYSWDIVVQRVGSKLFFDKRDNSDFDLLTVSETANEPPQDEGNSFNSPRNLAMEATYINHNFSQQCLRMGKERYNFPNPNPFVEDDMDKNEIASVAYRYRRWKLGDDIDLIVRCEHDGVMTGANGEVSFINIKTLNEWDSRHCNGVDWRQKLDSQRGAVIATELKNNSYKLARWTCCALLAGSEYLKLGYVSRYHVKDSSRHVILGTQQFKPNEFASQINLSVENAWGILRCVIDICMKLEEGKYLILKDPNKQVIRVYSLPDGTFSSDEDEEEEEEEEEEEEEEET

What is called IC50 is the concentration at which inhibition is half-maximal. As for `CC(C)=CCC/C(C)=C/[C@H]1OC(=O)CC12C[C@H](OC(=O)Cc1ccc(NC(=O)/C=C/c3ccccc3)cc1)C=CC2=O` (some centres not stated), the viability at 1 µM in [1] came to 66%. Also, the result in data set [2], in data set [3], in data set [7], in data set [8], in data set [19] and in data set [21] was Active. The inhibition entry in data set [4] and in data set [10] was “Dose-Dependent Effect” throughout. The “fold change (FC)” value in data set [5] is 2.21. In addition, the inhibition result in [6], in data set [14], in data set [16] and in [18] was “Active” in each case. In data set [9], the IC50 at 24 h stood at 57.1 µM. The Activity result in data set [11] was “Non-Toxic”; in data set [12] it was 0.83%; in data set [13] it was “Non-Toxic”; in data set [17] it was “Non-Toxic”; in [20] it was 58.2%; in data set [22], “Non-Toxic”. In addition, in data set [15], the selectivity ratio at 48 h is 72.7.
